Results reported in patent publication US20120226031A1, “PALMARUMYCIN BASED INHIBITORS OF THIOREDOXIN AND METHODS OF USING SAME” (ARIZONA BOARD OF REGENTS, ACTING ON BEHALF OF THE …, priority 2005, published 2012).
Where two headings read alike, the source gives them in different places.

Columns and labels:
[1] = test system: MCF-7 human breast cancer cells; test: MCF-7 breast cancer cell growth inhibition; type: cell-based
Method: MCF-7 human breast cancer cells were grown in medium containing 1 μM selenium (Se) for 7 days which increased cellular thioredoxin reductase activity by about 5 fold as previously reported.

Aqueous solubility = type: physicochemical
[2] = target: T1, human thioredoxin reductase (Homo sapiens, UniProt Q16881); test: Inhibition of purified human thioredoxin reductase (TrxR/TR); type: biochemical
T1 construct: (placenta); from tissue; host or cells: human placenta
T1 sequence (Q16881 151-649 limits assumed): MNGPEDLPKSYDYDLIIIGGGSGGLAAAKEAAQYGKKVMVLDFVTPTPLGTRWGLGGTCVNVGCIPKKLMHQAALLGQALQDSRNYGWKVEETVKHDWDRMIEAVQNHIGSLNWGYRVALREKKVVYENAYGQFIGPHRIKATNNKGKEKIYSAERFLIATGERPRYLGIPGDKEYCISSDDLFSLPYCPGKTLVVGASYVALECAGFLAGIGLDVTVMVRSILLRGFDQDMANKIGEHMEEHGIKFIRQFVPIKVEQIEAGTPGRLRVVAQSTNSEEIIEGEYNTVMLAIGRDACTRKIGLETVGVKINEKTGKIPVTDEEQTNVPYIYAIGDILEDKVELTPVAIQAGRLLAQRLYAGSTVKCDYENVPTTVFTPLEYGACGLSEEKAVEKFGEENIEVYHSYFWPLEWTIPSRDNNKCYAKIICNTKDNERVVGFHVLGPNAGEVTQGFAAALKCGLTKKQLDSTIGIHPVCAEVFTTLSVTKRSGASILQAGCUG

[3] = pH dependent stability in water / 0.1M sodium phosphate buffer; type: physicochemical; settings: for half-life at 100 g/ml / T1/2: 100 g/ml in 0.1M sodium phosphate buffer
Method: PX-916 was stable as a stock solution in ethanol at room temperature with a half life of >5 days. […] Therefore, for in vitro studies PX-916 was used as a stock solution in ethanol, and for in vivo studies made fresh in pH 4.0 buffer vehicle.
Further palmarumycin analogs were synthesized and tested. The following analogs were synthesized: eee269-II, eee86-III, eee263-II and eee273-II. The stability of the analogs was measured in various solutions.

[4] = Stability in fresh mouse plasma at room temperature; type: in vitro ADME
Method: (§1) Two metabolite peaks could be seen at 5 minutes, but were undetectable by 30 minutes.

[5] = Plasma levels in mice after i.v. administration; type: in vivo, mouse; set-up: dose or concentration left out as unconfirmed; settings: after PX-916 i.v. to mice
Method: as §1

[6] = Stability of prodrugs in mouse plasma (formation of parent compound); type: in vitro ADME; settings: first 20 min of incubation at 1 mg/ml and 33° C.
Method: (§2) The stability of the analogs and formation of the parent compound in plasma was measured and is presented in FIG. 7, FIG. 8 and Table 6 (measured by the formation of parent compound over the first 20 min of incubation at 1 mg/ml and at 33° C.), below.

[7] = Stability of prodrugs in human plasma (formation of parent compound); type: in vitro ADME; settings: first 20 min of incubation at 1 mg/ml and 33° C.
Method: as §2

[8] = Stability of prodrugs in ES1e mouse plasma (formation of parent compound); type: in vitro ADME; settings: first 20 min of incubation at 1 mg/ml and 33° C.
Method: as §2

[9] = Table 2, read-out: Inhibition of human thioredoxin reductase IC50
[10] = Homo sapiens, MCF7, Table 1, read-out: MCF-7 growth inhibition IC50
[11] = Table 1, read-out: TrxR inhibitory activity IC50

| Compound | IC50 [2, 9] | IC50 [1, 10] | IC50 [2, 11] | half-life at 100 g/ml ([3]; pH 4.0) | half-life at 100 g/ml ([3]; pH 7.0) | other results |
| --- | --- | --- | --- | --- | --- | --- |
| O=C1C=CC2(Oc3cccc4cccc(c34)O2)c2cccc(O)c21 [palmarumycin C1, palmarumycin CP1, reference compound] | 0.35 µM |  |  |  |  | IC50 ([1]; Table 2, read-out: Inhibition of MCF-7 breast cancer cell growth IC50): 1 µM; IC50 ([1]; text b151, summary of Table 2, read-out: concentration of cell growth inhibition of MCF-7 cells): 1 to 3 µM; solubility in aqueous media (Aqueous solubility; in words): almost insoluble in aqueous media |
| O=C1C=CC2(Oc3cccc4c(OCCN5CCOCC5)ccc(c34)O2)c2cccc(O)c21 (stereo not shown) [Compound 14] |  | 2.6 µM | 4.2 µM |  |  |  |
| COc1ccc2c3c(cccc13)OC1(C=CC(=O)c3ccccc31)O2 (stereo not shown) [PX-911] | 3.2 µM |  |  |  |  | IC50 ([1]; Homo sapiens, MCF7, Table 2, read-out: Inhibition of MCF-7 breast cancer cell growth IC50): 9.2 µM |
| O=C1C=CC2(Oc3cccc4c(OCCN5CCOCC5)ccc(c34)O2)c2ccccc21 (stereo not shown) [Compound 13] |  | 1.2 µM | 1.6 µM |  |  |  |
| O=C1C=CC2(Oc3cccc4c(OC5OC(CO)C(O)C(O)C5O)ccc(c34)O2)c2cccc(O)c21 (stereo not shown) [eee86-III] |  |  |  | > 100 h | > 100 h |  |
| NC(Cc1ccccc1)C(=O)Oc1ccc2c3c(cccc13)OC1(C=CC(=O)c3c(O)cccc31)O2 (stereo not shown) [eee273-II] |  |  |  | > 100 h | > 100 h | solubility at 1 mg/ml (Aqueous solubility; 1 mg/ml, plasma stability study): very insoluble |
| CC(C)(NNC1CC(=O)c2c(O)cccc2C12Oc1cccc3c(O)ccc(c13)O2)C(N)=O (stereo not shown) [eee269-II] |  |  |  | > 100 h | 0.2 h | stability in aqueous solutions ([3]; in words): unstable in aqueous solutions |
| O=C1C=CC2(Oc3cccc4c(O)ccc(c34)O2)c2cccc(O)c21 (stereo not shown) [PX-960] | 0.27 µM | 2.6 µM | 0.2 µM |  |  | IC50 ([1]; Homo sapiens, MCF7, read-out: Inhibition of MCF-7 breast cancer cell growth IC50): 4.1 µM; solubility (Aqueous solubility; water, read-out: water solubility): < 100 µg/mL; half life in mouse plasma [4]: about 31 minutes; half-life [4]: ~0.517 h; detection of PX-960 in plasma ([5]; at 5 minutes): only a very small peak; detection of PX-960 in plasma ([5]; at 30 minutes): No PX-960 was detected |
| CC(C)(N)C(=O)Oc1ccc2c3c(cccc13)OC1(C=CC(=O)c3c(O)cccc31)O2 (stereo not shown) [eee263-II] |  |  |  |  |  | formation of parent compound, Mouse Plasma [6]: 42 area/20 min; formation of parent compound, Human plasma [7]: 81 area/20 min; T1/2 ([3]; pH 4.0): >100 h; T1/2 ([3]; pH 7.0): >100 h; formation of parent compound, ES1e mouse plasma [8]: 82 area/20 min |
| CC(C)C(N)C(=O)Oc1ccc2c3c(cccc13)OC1(C=CC(=O)c3ccccc31)O2 (stereo not shown) [Compound 11] |  | 2.2 µM | 0.62 µM |  |  |  |
